The text below walks through data of patent US20150306090A1, “ORALLY ADMINISTERED MEDICAL COMPOSITION” (ASTELLAS PHARMA INC., priority 2012, published 2015).

The structures appear in SMILES notation. Values after ≈ are worked out from the molar mass of the structure shown.

One may read the solubility as the dissolved amount per volume that the medium holds. Higher therefore signals a readily soluble substance.

The nature of this series: physchem. The format is physicochemical. The source says: Further, the current product (Vesicare (registered trademark)) has been placed on the market, as a drug-immediate-release formulation. Furthermore, although the active ingredient is not the same, a bi-layered tablet comprising a modified release portion containing tamsulosin or a pharmaceutically acceptable salt thereof, and an immediate release portion containing solifenacin or a pharmaceutically acceptable salt thereof, is known (Patent literature 7).

Turning to `O=C(O[C@H]1CN2CCC1CC2)N1CCc2ccccc2[C@@H]1c1ccccc1` [solifenacin, (R)-quinuclidin-3-yl (S)-1-phenyl-1,2,3,4-tetrahydroisoquinoline-2-carboxylate], the solubility reads like this: (pH 6.8, aqueous buffer) 430 mg/mL (≈ 1190 mM); (water) 610 mg/mL (≈ 1680 mM).
